Starred links: 1 amine or outer side, 2 acyl side, 3 side chain; linkers in the order of their positions; H or OH if unused. Positions of bridges follow the written chain, without caps; N, C: chain ends. Non-standard residues stand in square brackets, D forms with d. Residues, ends and D or L forms follow the SMILES beside them. *: point of attachment. NH(CH2)3NH(O2Oc(DOTA)) = O=C(O)CN1CCN(CC(=O)O)CCN(CC(=O)NCCOCCOCC(=O)NCCCN*)CCN(CC(=O)O)CC1; Phe(3-NHCO(CH2)3SO2NH2) = N[C@@H](Cc1cccc(NC(=O)CCCS(N)(=O)=O)c1)C(=O)O; DOTA = O=C(O)CN1CCN(CC(=O)O)CCN(CC(=O)*)CCN(CC(=O)O)CC1; Phe(4-NH2) = Nc1ccc(C[C@H](N)C(=O)O)cc1; Desaminotyrosyl = O=C(CCc1ccc(O)cc1)*; mXylylene = c1cc(C[*:1])cc(C[*:2])c1; X36 = NS(=O)(=O)Cc1ccc(C(=O)*)cc1; X2 = O=C(CN1CCC(N[*:1])CC1)[*:2]; X65 = NS(=O)(=O)c1ccc(C(=O)*)cn1; X1 = O=C(CN1CCN([*:1])CC1)[*:2]; Pen = CC(C)(S)[C@H](N)C(=O)O; Isovaleryl = CC(C)CC(=O)*; NMeS = CN[C@@H](CO)C(=O)O; Sar = CNCC(=O)O
Molecular target: T1, CAIX-expressing human HT-29 colorectal cancer cells (Homo sapiens, UniProt Q16790)
T1 construct: CAIX-expressing human HT-29 colorectal cancer cells; host or cells: HT-29 human colorectal cancer cells
Assay: FACS binding assay (IC50 determination, competition with tracer 3BP-2776 or 3BP-4149)
Conditions: FACS binding assay, HT-29 cells, competition with tracer 3BP-2776 (10 nM, biotin-labeled), 4° C., 1 hour; read-out: pIC50 category (activity) (converted)
Description: In order to determine binding of compounds according to the present invention to CAIX-expressing cells, a FACS binding assay was established.
CAIX-expressing human HT-29 colorectal cancer cells (DSMZ, RRID: CVCL_0320) were cultured in McCoys's 5A modified medium (Biochrom, #F1015) including 10% fetal calf serum (FCS), 2 mM L-glutamine, 100 U/ml penicillin and 100 μg/mL streptomycin. Cells were detached with Accutase (Biolegend, #423201) and washed in FACS buffer (PBS including 1% FCS). Cells were diluted in FACS buffer to a final concentration of 500.000 cells per ml. 200 μL of the cell suspension were transferred to a u-shaped non-binding 96-well plate (Greiner) and cells were washed in ice-cold FACS buffer.
When biotinylated compounds were used an additional incubation step with 1 μg/mL APC-Streptavidin (Miltenyi; #130-106-791) in 50 μL FACS buffer for 30 minutes on ice was performed.
Cells were washed twice with ice-cold FACS buffer and analyzed in an Attune NxT flow cytometer (Thermo Fisher). Median fluorescence intensities (MFI) of the APC/Cy5-channel were calculated by Attune NxT software. MFI values were plotted against peptide concentration and four parameter logistic (4PL) curve fitting and EC50/pEC50 or IC50/pIC50 calculations were performed using ActivityBase software.

| Compound | IC50 [nM] |
| --- | --- |
| CC(C)C[C@@H]1NC(=O)[C@H](Cc2c[nH]c3ccccc23)NC(=O)[C@H](CC(=O)O)NC(=O)[C@H]2CCCN2C(=O)[C@H](CO)N(C)C(=O)[C@@H](NC(=O)[C@H](Cc2ccc(O)cc2)NC(=O)[C@@H](NC(=O)CN2CCC(NC(=O)CN3CCN(CC(=O)O)CCN(CC(=O)O)CCN(CC(=O)O)CC3)CC2)C(C)C)CSCc2cccc(c2)CSC[C@@H](C(N)=O)NC(=O)[C@H](CO)NC(=O)[C@H](Cc2c[nH]c3ccccc23)NC(=O)[C@H]([C@@H](C)O)NC1=O [3BP-4108] ({DOTA}-[X2]VYC[NMeS][dP]DWLTWSC-NH2; linker 4-13 via mXylylene) | < 10 |
| CC(C)C[C@@H]1NC(=O)[C@H](Cc2cccc(NC(=O)CCCS(N)(=O)=O)c2)NC(=O)[C@H](CC(=O)O)NC(=O)[C@H]2CCCN2C(=O)[C@H](CCC(=O)O)NC(=O)[C@@H](NC(=O)[C@H](CO)NC(=O)CN2CCN(C(=O)CN3CCN(CC(=O)O)CCN(CC(=O)O)CCN(CC(=O)O)CC3)CC2)CSCc2cccc(c2)CSC[C@@H](C(N)=O)NC(=O)[C@H](CO)NC(=O)[C@H](Cc2c[nH]c3ccccc23)NC(=O)[C@H]([C@@H](C)O)NC1=O [3BP-4450] ({DOTA}-[X1]SCE[dP]D[Phe(3-NHCO(CH2)3SO2NH2)]LTWSC-NH2; linker 3-12 via mXylylene) | < 10 |

Same assay, conditions: FACS binding assay, HT-29 cells, competition with tracer 3BP-4149 (3 nM, Cy5-labeled), 4° C., 1 hour; read-out: pIC50 category (activity) (converted)

| Compound | IC50 [nM] |
| --- | --- |
| CC(C)CC(=O)Nc1ccc(C[C@@H]2NC(=O)[C@H](CC(=O)O)NC(=O)[C@H]3CCCN3C(=O)[C@H](CCC(=O)O)NC(=O)[C@@H](NC(=O)[C@H](Cc3ccc(O)cc3)NC(=O)[C@@H](NC(=O)CN3CCC(NC(=O)CN4CCN(CC(=O)O)CCN(CC(=O)O)CCN(CC(=O)O)CC4)CC3)C(C)C)CSCc3cccc(c3)CSC[C@@H](C(N)=O)NC(=O)[C@H](CO)NC(=O)[C@H](Cc3c[nH]c4ccccc34)NC(=O)[C@H]([C@@H](C)O)NC(=O)[C@H](CC(C)C)NC2=O)cc1 [3BP-4348] ({DOTA}-[X2]VYCE[dP]D[Phe(4-NH2)](Isovaleryl)LTWSC-NH2; linker 4-13 via mXylylene) | 100 to 794 |
| CC(C)C[C@@H]1NC(=O)[C@H](Cc2ccc(NC(=O)c3ccc(CS(N)(=O)=O)cc3)cc2)NC(=O)[C@H](CC(=O)O)NC(=O)[C@H]2CCCN2C(=O)[C@H](CCC(=O)O)NC(=O)[C@@H](NC(=O)[C@H](Cc2ccc(O)cc2)NC(=O)[C@@H](NC(=O)CN2CCC(NC(=O)CN3CCN(CC(=O)O)CCN(CC(=O)O)CCN(CC(=O)O)CC3)CC2)C(C)C)CSCc2cccc(c2)CSC[C@@H](C(N)=O)NC(=O)[C@H](CO)NC(=O)[C@H](Cc2c[nH]c3ccccc23)NC(=O)[C@H]([C@@H](C)O)NC1=O [3BP-4399] ({DOTA}-[X2]VYCE[dP]D[Phe(4-NH2)](X36)LTWSC-NH2; linker 4-13 via mXylylene) | 10 to 79.4 |
| CC(C)C[C@@H]1NC(=O)[C@H](Cc2ccc(NC(=O)c3ccc(S(N)(=O)=O)nc3)cc2)NC(=O)[C@H](CC(=O)O)NC(=O)[C@H]2CCCN2C(=O)[C@H](CCC(=O)O)NC(=O)[C@@H](NC(=O)[C@H](CCC(N)=O)NC(=O)CN2CCN(C(=O)CN3CCN(CC(=O)O)CCN(CC(=O)O)CCN(CC(=O)O)CC3)CC2)CSCc2cccc(c2)CSC[C@@H](C(N)=O)NC(=O)[C@H](CO)NC(=O)[C@H](Cc2c[nH]c3ccccc23)NC(=O)[C@H]([C@@H](C)O)NC1=O [3BP-4481] ({DOTA}-[X1]QCE[dP]D[Phe(4-NH2)](X65)LTWSC-NH2; linker 3-12 via mXylylene) | 100 to 794 |

Same assay, conditions: FACS competition on HT-29 cells, Tracer ID 3BP-2776 (10 nM, biotin-labeled), 4° C., 1 hour; read-out: pIC50 category (activity) (converted)

| Compound | IC50 [nM] |
| --- | --- |
| CC(=O)N[C@H](C(=O)N[C@@H](Cc1ccc(O)cc1)C(=O)N[C@H]1CSCc2cccc(c2)CSC[C@@H](C(N)=O)NC(=O)[C@H](CCC(N)=O)NC(=O)[C@H](Cc2c[nH]c3ccccc23)NC(=O)[C@H]([C@@H](C)O)NC(=O)[C@H](CC(C)C)NC(=O)[C@H](Cc2c[nH]c3ccccc23)NC(=O)[C@@H](CC(=O)O)NC(=O)CNC(=O)[C@H](CCC(=O)O)NC1=O)C(C)C [3BP-3047] (Ac-VYCEG[dD]WLTWQC-NH2; linker 3-12 via mXylylene) | 100 to 794 |
| CC(=O)N[C@H](C(=O)N[C@@H](Cc1ccc(O)cc1)C(=O)N[C@H]1CSCc2cccc(c2)CSC[C@@H](C(N)=O)NC(=O)[C@H](CCC(N)=O)NC(=O)[C@H](Cc2c[nH]c3ccccc23)NC(=O)[C@H]([C@@H](C)O)NC(=O)[C@H](CC(C)C)NC(=O)[C@H](Cc2c[nH]c3ccccc23)NC(=O)[C@H](C)NC(=O)CNC(=O)[C@H](CCC(=O)O)NC1=O)C(C)C [3BP-3053] (Ac-VYCEGAWLTWQC-NH2; linker 3-12 via mXylylene) | 10 to 79.4 |
| CC(=O)N[C@H](C(=O)N[C@@H](Cc1ccc(O)cc1)C(=O)N[C@H]1CSCc2cccc(c2)CSC[C@@H](C(N)=O)NC(=O)[C@H](CCC(N)=O)NC(=O)[C@H](Cc2c[nH]c3ccccc23)NC(=O)CNC(=O)[C@H](CC(C)C)NC(=O)[C@H](Cc2c[nH]c3ccccc23)NC(=O)[C@H](CC(=O)O)NC(=O)CN(C)C(=O)[C@H](CCC(=O)O)NC1=O)C(C)C [3BP-3307] (Ac-VYCE[Sar]DWLGWQC-NH2; linker 3-12 via mXylylene) | < 10 |
| CC(C)C[C@@H]1NC(=O)[C@H](Cc2c[nH]c3ccccc23)NC(=O)[C@@H]2CCCCNC(=O)CC[C@H](NC1=O)C(=O)N[C@@H](Cc1c[nH]c3ccccc13)C(=O)N[C@@H](CO)C(=O)N[C@H](C(N)=O)CSCc1cccc(c1)CSC[C@H](NC(=O)[C@H](Cc1ccc(O)cc1)NC(=O)[C@@H](NC(=O)CN1CCC(NC(=O)CN3CCN(CC(=O)O)CCN(CC(=O)O)CCN(CC(=O)O)CC3)CC1)C(C)C)C(=O)N[C@@H](CCC(=O)O)C(=O)N1CCC[C@@H]1C(=O)N2 [3BP-3933] ({DOTA}-[X2]VYCE[dP]KWLEWSC-NH2; linker 4-13 via mXylylene; lactam 7-10) | 10 to 79.4 |
| CC(=O)N[C@H](C(=O)N[C@@H](Cc1ccc(O)cc1)C(=O)N[C@H]1CSCc2cccc(c2)CSC(C)(C)[C@@H](C(N)=O)NC(=O)[C@H](C)NC(=O)[C@H](Cc2c[nH]c3ccccc23)NC(=O)[C@H]([C@@H](C)O)NC(=O)[C@H](CC(C)C)NC(=O)[C@H](Cc2c[nH]c3ccccc23)NC(=O)[C@H](CC(=O)O)NC(=O)[C@H]2CCCN2C(=O)[C@H](CCC(=O)O)NC1=O)C(C)C [3BP-3492] (Ac-VYCE[dP]DWLTWA[Pen]-NH2; linker 3-12 via mXylylene) | < 10 |
| CC(=O)N[C@@H](Cc1ccc(O)cc1)C(=O)N[C@H]1CSCc2cccc(c2)CSC[C@@H](C(N)=O)NC(=O)[C@H](CO)NC(=O)[C@H](Cc2c[nH]c3ccccc23)NC(=O)[C@H]([C@@H](C)O)NC(=O)[C@H](CC(C)C)NC(=O)[C@H](Cc2c[nH]c3ccccc23)NC(=O)[C@H](CC(=O)O)NC(=O)[C@H]2CCCN2C(=O)[C@H](CCC(=O)O)NC1=O [3BP-3729] (Ac-YCE[dP]DWLTWSC-NH2; linker 2-11 via mXylylene) | < 10 |
| CC(=O)N[C@H](C(=O)N[C@@H](Cc1ccc(O)cc1)C(=O)N[C@@H]1C(=O)N[C@@H](CCC(=O)O)C(=O)NCC(=O)N[C@@H](CC(=O)O)C(=O)N[C@@H](Cc2c[nH]c3ccccc23)C(=O)N[C@@H](CC(C)C)C(=O)N[C@@H]([C@@H](C)O)C(=O)N[C@@H](Cc2c[nH]c3ccccc23)C(=O)N[C@@H](CCC(N)=O)C(=O)N[C@H](C(N)=O)CSCc2cccc(c2)CSC1(C)C)C(C)C [3BP-3063] (Ac-VY[Pen]EGDWLTWQC-NH2; linker 3-12 via mXylylene) | 10 to 79.4 |
| CC(C)CC(=O)N[C@@H](Cc1ccccc1)C(=O)N[C@H]1CSCc2cccc(c2)CSC[C@@H](C(N)=O)NC(=O)[C@H](CCC(=O)NCCCNC(=O)COCCOCCNC(=O)CN2CCN(CC(=O)O)CCN(CC(=O)O)CCN(CC(=O)O)CC2)NC(=O)[C@H](Cc2c[nH]c3ccccc23)NC(=O)[C@H]([C@@H](C)O)NC(=O)[C@H](CC(C)C)NC(=O)[C@H](Cc2c[nH]c3ccccc23)NC(=O)[C@H](CC(=O)O)NC(=O)[C@H]2CCCN2C(=O)[C@H](CCC(=O)O)NC1=O [3BP-3742] (Isovaleryl-FCE[dP]DWLTWE(NH(CH2)3NH(O2Oc(DOTA)))C-NH2; linker 2-11 via mXylylene) | < 10 |
| CC(C)C[C@@H]1NC(=O)[C@H](Cc2c[nH]c3ccccc23)NC(=O)[C@H](CC(=O)O)NC(=O)[C@H]2CCCN2C(=O)[C@H](CCC(=O)O)NC(=O)[C@@H](NC(=O)CCc2ccc(O)cc2)CSCc2cccc(c2)CSC[C@@H](C(N)=O)NC(=O)[C@H](CO)NC(=O)[C@H](Cc2c[nH]c3ccccc23)NC(=O)[C@H]([C@@H](C)O)NC1=O [3BP-3731] (Desaminotyrosyl-CE[dP]DWLTWSC-NH2; linker 1-10 via mXylylene) | 10 to 79.4 |
| CC(=O)N[C@H](C(=O)N[C@@H](Cc1ccc(O)cc1)C(=O)N[C@H]1CSCc2cccc(c2)CSC[C@@H](C(N)=O)NC(=O)[C@H](CO)NC(=O)[C@H](Cc2c[nH]c3ccccc23)NC(=O)[C@H]([C@@H](C)O)NC(=O)[C@H](CC(C)C)NC(=O)[C@H](Cc2c[nH]c3ccccc23)NC(=O)[C@H](CC(=O)O)NC(=O)[C@H]2CCCN2C(=O)[C@H](CCC(=O)O)NC1=O)[C@@H](C)O [3BP-3567] (Ac-TYCE[dP]DWLTWSC-NH2; linker 3-12 via mXylylene) | < 10 |

Reference: patent publication US20250339569A1, “CARBONIC ANHYDRASE IX LIGANDS” (priority 2021, published 2025)
